From patent US12077503B2, “Substituted cyclic amides and their use as herbicides” (FMC CORPORATION, priority 2015, dated 2024)

Columns and labels:
Format in all cases: in vivo
[1] = test system: barnyardgrass (Echinochloa crus-galli); assay: Test A preemergence; conditions: Echinochloa crus-galli, pre-emergence, 240 h, preemergence, read-out: Plant response rating, Barnyardgrass; for pest or weed control at 125 g/ha: 125 g ai/ha, visual rating after approx. 10 d, 0 to 100 scale where 0 is no effect and 100 is complete control; for pest or weed control at 500 g/ha: 500 g ai/ha, 0 to 100 scale, 0 = no effect, 100 = complete control
Procedure, shortened: (§1)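 Seeds sprayed preemergence with a directed soil spray, or plants at 2 to 10 cm height and one- to two-leaf stage sprayed postemergence, with test chemicals in a non-phytotoxic solvent mixture containing surfactant, in loam soil–sand blend. Injury rated visually against untreated controls after about 10 d in greenhouse, 0 (no effect) to 100 (complete control).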

Kochia (Kochia scoparia) [2] = assay: Test A preemergence; conditions: Bassia scoparia, pre-emergence, 240 h, preemergence, read-out: Plant response rating, Kochia; for pest or weed control at 125 g/ha: 125 g ai/ha, visual rating after approx. 10 d, 0 to 100 scale where 0 is no effect and 100 is complete control; for pest or weed control at 500 g/ha: 500 g ai/ha, 0 to 100 scale, 0 = no effect, 100 = complete control
Procedure, shortened: as §1

[3] = test system: ragweed (common ragweed, Ambrosia elatior); assay: Test A preemergence; conditions: Ambrosia artemisiifolia, pre-emergence, 240 h, preemergence, read-out: Plant response rating, Ragweed; for pest or weed control at 125 g/ha: 125 g ai/ha, visual rating after approx. 10 d, 0 to 100 scale where 0 is no effect and 100 is complete control; for pest or weed control at 500 g/ha: 500 g ai/ha, 0 to 100 scale, 0 = no effect, 100 = complete control
Procedure, shortened: as §1

[4] = test system: giant foxtail (Setaria faberii); assay: Test A preemergence; conditions: Setaria faberi, pre-emergence, 240 h, preemergence, read-out: Plant response rating, Foxtail, Giant; for pest or weed control at 125 g/ha: 125 g ai/ha, visual rating after approx. 10 d, 0 to 100 scale where 0 is no effect and 100 is complete control; for pest or weed control at 500 g/ha: 500 g ai/ha, 0 to 100 scale, 0 = no effect, 100 = complete control
Procedure, shortened: as §1

[5] = test system: pigweed (Amaranthus retroflexus); assay: Test A preemergence; conditions: Amaranthus retroflexus, pre-emergence, 240 h, preemergence, read-out: Plant response rating, Pigweed; for pest or weed control at 125 g/ha: 125 g ai/ha, visual rating after approx. 10 d, 0 to 100 scale where 0 is no effect and 100 is complete control; for pest or weed control at 500 g/ha: 500 g ai/ha, 0 to 100 scale, 0 = no effect, 100 = complete control
[6] = test system: ryegrass, Italian (Italian ryegrass, Lolium multiflorum); assay: Test A preemergence; conditions: Lolium multiflorum, pre-emergence, 240 h, preemergence, read-out: Plant response rating, Ryegrass, Italian; for pest or weed control at 125 g/ha: 125 g ai/ha, visual rating after approx. 10 d, 0 to 100 scale where 0 is no effect and 100 is complete control; for pest or weed control at 500 g/ha: 500 g ai/ha, 0 to 100 scale, 0 = no effect, 100 = complete control
Procedure, shortened: as §1

[7] = test system: barnyardgrass (Echinochloa crus-galli); assay: Test A postemergence; conditions: Echinochloa crus-galli, post-emergence, 240 h, 125 g ai/ha, postemergence; visual injury after approximately 10 d; 0 to 100 scale (0 no effect, 100 complete control); read-out: Plant response rating, Barnyardgrass
Procedure, shortened: as §1

Kochia (Kochia scoparia) [8] = assay: Test A postemergence; conditions: Bassia scoparia, post-emergence, 240 h, 125 g ai/ha, postemergence; visual injury after approximately 10 d; 0 to 100 scale (0 no effect, 100 complete control); read-out: Plant response rating, Kochia
Procedure, shortened: as §1

[9] = test system: ragweed (common ragweed, Ambrosia elatior); assay: Test A postemergence; conditions: Ambrosia artemisiifolia, post-emergence, 240 h, 125 g ai/ha, postemergence; visual injury after approximately 10 d; 0 to 100 scale (0 no effect, 100 complete control); read-out: Plant response rating, Ragweed
Procedure, shortened: as §1

corn (Zea mays) = assay: Test A postemergence; conditions: Zea mays, post-emergence, 240 h, 125 g ai/ha, postemergence; visual injury after approximately 10 d; 0 to 100 scale (0 no effect, 100 complete control)
Procedure, shortened: as §1

[10] = test system: giant foxtail (Setaria faberii); assay: Test A postemergence; conditions: Setaria faberi, post-emergence, 240 h, 125 g ai/ha, postemergence; visual injury after approximately 10 d; 0 to 100 scale (0 no effect, 100 complete control); read-out: Plant response rating, Foxtail, Giant
Procedure, shortened: as §1

[11] = test system: Galium (catchweed bedstraw, Galium aparine); assay: Test A postemergence; conditions: Galium, post-emergence, 240 h, 125 g ai/ha, postemergence; visual injury after approximately 10 d; 0 to 100 scale (0 no effect, 100 complete control); read-out: Plant response rating, Galium
Procedure, shortened: as §1

[12] = test system: pigweed (Amaranthus retroflexus); assay: Test A postemergence; conditions: Amaranthus retroflexus, post-emergence, 240 h, 125 g ai/ha, postemergence; visual injury after approximately 10 d; 0 to 100 scale (0 no effect, 100 complete control); read-out: Plant response rating, Pigweed
Procedure, shortened: as §1

[13] = test system: wheat (Triticum aestivum); assay: Test A postemergence; conditions: Triticum aestivum, post-emergence, 240 h, 125 g ai/ha, postemergence; visual injury after approximately 10 d; 0 to 100 scale (0 no effect, 100 complete control); read-out: Plant response rating, Wheat
Procedure, shortened: as §1

[14] = test system: blackgrass (Alopecurus myosuroides); assay: Test A postemergence; conditions: Alopecurus myosuroides, post-emergence, 240 h, 125 g ai/ha, postemergence; visual injury after approximately 10 d; 0 to 100 scale (0 no effect, 100 complete control); read-out: Plant response rating, Blackgrass
Procedure, shortened: as §1

Compound | pest or weed control at 125 g/ha [1] | pest or weed control at 500 g/ha [1] | pest or weed control at 125 g/ha (Kochia (Kochia scoparia) [2]) | pest or weed control at 500 g/ha (Kochia (Kochia scoparia) [2]) | pest or weed control at 125 g/ha [3] | pest or weed control at 500 g/ha [3] | pest or weed control at 125 g/ha [4] | pest or weed control at 500 g/ha [4] | pest or weed control at 125 g/ha [5] | pest or weed control at 500 g/ha [5] | pest or weed control at 125 g/ha [6] | pest or weed control at 500 g/ha [6] | pest or weed control at 125 g/ha [7] | pest or weed control at 125 g/ha (Kochia (Kochia scoparia) [8]) | pest or weed control at 125 g/ha [9] | Corn plant response rating (crop injury, 0 = no effect, 100 = complete kill) at 125 g/ha (corn (Zea mays)) | pest or weed control at 125 g/ha [10] | pest or weed control at 125 g/ha [11] | pest or weed control at 125 g/ha [12] | plant injury at 125 g/ha [13] | other results
CN1C[C@H](c2cc(F)cc(F)c2)[C@@H](C(=O)NC2CCc3ccccc32)C1=O (stereo partly drawn) [Compound 755] | 0% | 0% | 0% | 0% | 0% | 0% | 0% | 0% | 0% | 0% | 0% | 0% | 0% | 0% | 0% | 0% | 0% | 0% | 0% | 0% | pest or weed control at 125 g/ha [14]: 0%
Cc1ccc([C@H]2CN(C)C(=O)[C@@H]2C(=O)Nc2ccccc2S(C)(=O)=O)cc1C [Compound 734] | 90% | 100% | 20% | 90% | 20% | 50% | 90% | 100% | 20% | 80% | 40% | 90% | 90% | 0% | 10% | 40% | 90% | 30% | 0% | 50% | pest or weed control at 125 g/ha [14]: 20%
